Measured values published in PMC12056667 (Chemical Science, 2025).
Where two headings read alike, the source gives them in different places.

Tests used:
Tet(X4) = Tet(X4) (Escherichia coli, UniProt A0A3T0V9Y5); test: FP competitive displacement of probe 6; assay type: binding; conditions: for IC50: IC50app, 25 nM 6, 40 nM Tet(X4), 5 mM MgCl2, 1 μM FAD, 100 mM Tris pH 7.0, 0.01% Triton X-100
How it was run: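 FP displacement of probe 6 (added as 50 nM solution) from Tet(X4) (2× mix: 80 nM enzyme, 2 μM FAD, 10 mM MgCl2), 30 min at ambient temperature. Dose-response used 3-fold, 10-point DMSO series (top 5 or 0.5 mM stock). IC50^app came from a Hill fit of control-normalised response. Library screening used 10 μM compound, 0.1% DMSO, […].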

[1] = test system: E. coli TOP10 containing plasmid pBAD-TOPO-Tet(X4); test: Broth microdilution MIC and checkerboard assay; assay type: cell-based, Escherichia coli; conditions: for MIC: Escherichia coli; for Combination (antibiotic/inhibitor) MIC: inhibitor: inhibitor in combination with tigecycline; for Combination (antibiotic/inhibitor) MIC: inhibitor / Combination (antibiotic/inhibitor) MIC: antibiotic / Combination (Antibiotic/Inhibitor) MICs: antibiotic / Combination (Antibiotic/Inhibitor) MICs: inhibitor: lowest FICI; for Combination (antibiotic/inhibitor) MIC: antibiotic: tigecycline in combination with the inhibitor
How it was run: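 E. coli TOP10 with pBAD-TOPO-Tet(X4), […], tested by CLSI broth microdilution in CAMHB, ~1.5 × 10^6 cfu mL^−1 inoculum, 37 °C, 18 h. Checkerboard of seven 2-fold inhibitor dilutions × ten dilutions; growth read visually ± resazurin; FICI = FICA + FICB.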

[2] = test system: Acinetobacter baumannii NT5-1 – tet(X5); test: microbe, parasite or virus in culture; assay type: cell-based; conditions: for MIC: Acinetobacter baumannii, read-out: Tet(X) Inhibitor MIC; for Combination (Antibiotic/Inhibitor) MICs: inhibitor / Combination (Antibiotic/Inhibitor) MICs: antibiotic: lowest FICI
Description: (§1) MIC tests and checkerboard assays were performed in U-bottom, 96-well microtiter plates using a modified broth microdilution protocol following CLSI guidelines. Cation-adjusted Mueller-Hinton Broth (CAMHB) was prepared fresh on the day of testing.[74] […] Bacterial colonies were selected from an overnight culture on MHA plates (supplemented with 0.2%w/vL-arabinose for E. coli TOP10 containing pBAD-TOPO-Tet(X4)) and were suspended in 0.9% saline solution to achieve a 0.5 McFarland standard. A 100 μL aliquot of this suspension was then diluted into 9.9 mL of CAMHB to yield approximately 1.5 × 10^6 cfu mL^−1. 50 μL of the suspension was then added to each well of a microtiter plates. Plates were incubated at 37 °C for 18 h. At least 2 replicates were conducted for each combination. E. coli TOP10 + pBAD-TOPO-Tet(X4) cells were grown in the absence and presence of 0.2%w/vL-arabinose. Analysis of the MIC and checkerboard results were carried out by visual inspection of growth, with and without resazurin dye, an oxidation–reduction indicator.[75] As a measure of synergy, fractional inhibitory concentration index (FICI) was calculated as FICA + FICB, where FICA and FICB are the MICcombination/MICalone for each agent, respectively.[76] Results were interpreted as follows: synergistic (<0.5), indifferent (1.0–4.0) or antagonistic (>4.0).[64] In cases where the MIC exceeded or was below the measured range, the borderline value was taken to calculate the FIC index.

[3] = test system: Escherichia coli T-24a – tet(X4); test: microbe, parasite or virus in culture; assay type: cell-based; conditions: for MIC: Escherichia coli, read-out: Tet(X) Inhibitor MIC, alone; for Combination (Antibiotic/Inhibitor) MICs: inhibitor / Combination (Antibiotic/Inhibitor) MICs: antibiotic: lowest FICI
Description: as §1

[4] = test system: Proteus penneri NT6-2 – tet(X6); test: microbe, parasite or virus in culture; assay type: cell-based; conditions: for MIC: Proteus penneri, read-out: Tet(X) Inhibitor MIC; for Combination (Antibiotic/Inhibitor) MICs: inhibitor / Combination (Antibiotic/Inhibitor) MICs: antibiotic: lowest FICI
Description: as §1

[5] = read-out: Tet(X) Inhibitor MIC, alone, without L-arabinose induction
[6] = read-out: Tet(X) inhibitor MIC, alone, induced with 0.2%w/v L-arabinose
[7] = with tigecycline, 0.2%w/v L-arabinose
[8] = with tigecycline, without L-arabinose
[9] = inhibitor in combination with tigecycline
[10] = tigecycline in combination with the inhibitor
[11] = with doxycycline, 0.2%w/v L-arabinose
[12] = with doxycycline, no L-arabinose
[13] = with tetracycline, 0.2%w/v L-arabinose
[14] = with tetracycline, no L-arabinose

SMILES: Cc1c2c(c(O)c3c(O)cccc13)C(=O)[C@]1(O)C(=O)C(C(N)=O)=C(O)[C@@H](N(C)C)[C@@H]1C2 [Anhydrotetracycline]
- IC50 (Tet(X4); FP assay): 0.0268 ± 0.0053 µM
- displacement of probe 6 / competitive binding (in words) (Tet(X4); up to a maximum concentration of 100 μM): clear dose-dependent displacement
- MIC [1, 5]: 8 µg/mL
- MIC [1, 6]: 8 µg/mL
- Combination (antibiotic/inhibitor) MIC: inhibitor ([1]; 0.2%w/v L-arabinose): 2 µg/mL
- Combination (antibiotic/inhibitor) MIC: inhibitor ([1]; without L-arabinose): 8 µg/mL
- Combination (antibiotic/inhibitor) MIC: antibiotic ([1]; 0.2%w/v L-arabinose): 0.5 µg/mL
- Combination (antibiotic/inhibitor) MIC: antibiotic ([1]; without L-arabinose): 0.25 µg/mL
- FICI [1, 7]: 0.4
- Outcome [1, 7]: Synergy (synergy (≤0.5))
- FICI [1, 8]: 2
- Outcome [1, 8]: indifferent (indifferent (0.5-4.0))
- MIC [2]: 16 µg/mL
- Combination (Antibiotic/Inhibitor) MICs: inhibitor [2, 9]: 4 µg/mL
- Combination (Antibiotic/Inhibitor) MICs: antibiotic [2, 10]: 2 µg/mL
- FICI ([2]; with tigecycline): 0.5
- Outcome ([2]; with tigecycline): indifferent (indifferent (0.5-4.0))
- MIC ([3]; E. coli T-24a): 64 µg/mL
- Combination (Antibiotic/Inhibitor) MICs: inhibitor [3, 9]: 32 µg/mL
- Combination (Antibiotic/Inhibitor) MICs: antibiotic [3, 10]: 4 µg/mL
- FICI ([3]; with tigecycline): 0.8
- Outcome ([3]; with tigecycline): indifferent (indifferent (0.5-4.0))
- MIC [4]: 4 µg/mL
- Combination (Antibiotic/Inhibitor) MICs: inhibitor [4, 9]: 1 µg/mL
- Combination (Antibiotic/Inhibitor) MICs: antibiotic [4, 10]: 4 µg/mL
- FICI ([4]; with tigecycline): 0.8
- Outcome ([4]; with tigecycline): indifferent (indifferent (0.5-4.0))

SMILES: O=C(c1ccc(OCCN2CCCCC2)cc1)c1c(-c2ccc(O)cc2)sc2cc(O)ccc12 [Raloxifene]
- IC50 (Tet(X4); Tet(X4) (Polarization)): 19.8 ± 5.4 µM
- MIC [1, 5]: > 128 µg/mL
- MIC [1, 6]: > 128 µg/mL
- Combination (antibiotic/inhibitor) MIC: inhibitor ([1]; 0.2%w/v L-arabinose): 128 µg/mL
- Combination (antibiotic/inhibitor) MIC: inhibitor ([1]; without L-arabinose): > 128 µg/mL
- Combination (antibiotic/inhibitor) MIC: antibiotic ([1]; 0.2%w/v L-arabinose): 0.5 µg/mL
- Combination (antibiotic/inhibitor) MIC: antibiotic ([1]; without L-arabinose): 0.25 µg/mL
- FICI [1, 7]: 1.1
- Outcome [1, 7]: Indifferent (indifferent (0.5–4.0))
- FICI [1, 8]: 2
- Outcome [1, 8]: indifferent (indifferent (0.5-4.0))
- MIC [2]: > 128 µg/mL
- Combination (Antibiotic/Inhibitor) MICs: inhibitor [2, 9]: 128 µg/mL
- Combination (Antibiotic/Inhibitor) MICs: antibiotic [2, 10]: 2 µg/mL
- FICI ([2]; with tigecycline): 1.3
- Outcome ([2]; with tigecycline): indifferent (indifferent (0.5-4.0))
- MIC ([3]; E. coli T-24a): 256 µg/mL
- Combination (Antibiotic/Inhibitor) MICs: inhibitor [3, 9]: 128 µg/mL
- Combination (Antibiotic/Inhibitor) MICs: antibiotic [3, 10]: 8 µg/mL
- FICI ([3]; with tigecycline): 1
- Outcome ([3]; with tigecycline): indifferent (indifferent (0.5-4.0))
- MIC [4]: > 128 µg/mL
- Combination (Antibiotic/Inhibitor) MICs: inhibitor [4, 9]: > 128 µg/mL
- Combination (Antibiotic/Inhibitor) MICs: antibiotic [4, 10]: 8 µg/mL
- FICI ([4]; with tigecycline): 2
- Outcome ([4]; with tigecycline): indifferent (indifferent (0.5-4.0))

SMILES: [H]/N=C(/NCCCCC)N/N=C/c1c[nH]c2ccc(OC)cc12 [Tegaserod]
- IC50 (Tet(X4); Tet(X4) (Polarization)): 43.2 ± 2.2 µM
- MIC ([1]; read-out: Tet(X) Inhibitor MIC, alone, 0.2%w/v L-arabinose (Table S7)): 16 µg/mL
- MIC [1, 5]: 16 µg/mL
- MIC [1, 6]: 16 to 64 µg/mL
- Tet(X) inhibitor MIC ([1]; alone, induced with 0.2%w/v L-arabinose): 16 µg/mL
- reduction of the tigecycline MIC ([1]; at high concentrations of inhibitor, 0.2%w/v L-arabinose): 2–4 fold
- Combination (Antibiotic/Inhibitor) MICs: antibiotic ([1]; doxycycline with tegaserod, 0.2%w/v L-arabinose): 16 µg/mL
- Combination (Antibiotic/Inhibitor) MICs: antibiotic ([1]; doxycycline with tegaserod, no L-arabinose): 8 µg/mL
- Combination (antibiotic/inhibitor) MIC: inhibitor ([1]; 0.2%w/v L-arabinose): 8 µg/mL
- Combination (antibiotic/inhibitor) MIC: inhibitor ([1]; without L-arabinose): 16 µg/mL
- Combination (Antibiotic/Inhibitor) MICs: inhibitor ([1]; tegaserod with doxycycline, 0.2%w/v L-arabinose): 4 µg/mL
- Combination (Antibiotic/Inhibitor) MICs: inhibitor ([1]; tegaserod with doxycycline, no L-arabinose): 0.5 µg/mL
- Combination (Antibiotic/Inhibitor) MICs: inhibitor ([1]; tegaserod with tetracycline, 0.2%w/v L-arabinose): 8 µg/mL
- Combination (Antibiotic/Inhibitor) MICs: inhibitor ([1]; tegaserod with tetracycline, no L-arabinose): 4 µg/mL
- Combination (Antibiotic/Inhibitor) MICs: antibiotic ([1]; tetracycline with tegaserod, 0.2%w/v L-arabinose): 64 µg/mL
- Combination (Antibiotic/Inhibitor) MICs: antibiotic ([1]; tetracycline with tegaserod, no L-arabinose): 16 µg/mL
- Combination (antibiotic/inhibitor) MIC: antibiotic ([1]; 0.2%w/v L-arabinose): 1 µg/mL
- Combination (antibiotic/inhibitor) MIC: antibiotic ([1]; without L-arabinose): 0.25 µg/mL
- FICI [1, 11]: 0.8
- Outcome [1, 11]: indifferent (indifferent (0.5-4.0))
- FICI [1, 12]: 1.0
- Outcome [1, 12]: indifferent (indifferent (0.5-4.0))
- FICI [1, 13]: 1.0
- Outcome [1, 13]: indifferent (indifferent (0.5-4.0))
- FICI [1, 14]: 2.0
- Outcome [1, 14]: indifferent (indifferent (0.5-4.0))
- FICI [1, 7]: 0.8
- Outcome [1, 7]: Indifferent (indifferent (0.5–4.0))
- FICI ([1]; with tigecycline, 0.2%w/v L-arabinose, listed as tegaserod): 0.5-1
- FICI [1, 8]: 2
- Outcome [1, 8]: indifferent (indifferent (0.5-4.0))
- MIC [2]: 32 µg/mL
- Combination (Antibiotic/Inhibitor) MICs: antibiotic ([2]; doxycycline with tegaserod): 16 µg/mL
- Combination (Antibiotic/Inhibitor) MICs: inhibitor [2, 9]: 16 µg/mL
- Combination (Antibiotic/Inhibitor) MICs: inhibitor ([2]; tegaserod with doxycycline): 4 µg/mL
- Combination (Antibiotic/Inhibitor) MICs: inhibitor ([2]; tegaserod with tetracycline): 8 µg/mL
- Combination (Antibiotic/Inhibitor) MICs: antibiotic ([2]; tetracycline with tegaserod): 128 µg/mL
- Combination (Antibiotic/Inhibitor) MICs: antibiotic [2, 10]: 1 µg/mL
- FICI ([2]; with doxycycline): 0.6
- Outcome ([2]; with doxycycline): indifferent (indifferent (0.5-4.0))
- FICI ([2]; with tetracycline): 1.3
- Outcome ([2]; with tetracycline): indifferent (indifferent (0.5-4.0))
- FICI ([2]; with tigecycline): 0.6
- Outcome ([2]; with tigecycline): indifferent (indifferent (0.5-4.0))
- MIC ([3]; E. coli T-24a): 16 µg/mL
- Tet(X) inhibitor MIC ([3]; alone, E. coli T-24a): 32 µg/mL
- Combination (Antibiotic/Inhibitor) MICs: antibiotic ([3]; doxycycline with tegaserod): 4 µg/mL
- Combination (Antibiotic/Inhibitor) MICs: inhibitor [3, 9]: 8 µg/mL
- Combination (Antibiotic/Inhibitor) MICs: inhibitor ([3]; tegaserod with doxycycline): 16 µg/mL
- Combination (Antibiotic/Inhibitor) MICs: inhibitor ([3]; tegaserod with tetracycline): 16 µg/mL
- Combination (Antibiotic/Inhibitor) MICs: antibiotic ([3]; tetracycline with tegaserod): 32 µg/mL
- Combination (Antibiotic/Inhibitor) MICs: antibiotic [3, 10]: 4 µg/mL
- FICI ([3]; with doxycycline): 0.6
- Outcome ([3]; with doxycycline): indifferent (indifferent (0.5-4.0))
- FICI ([3]; with tetracycline): 0.8
- Outcome ([3]; with tetracycline): indifferent (indifferent (0.5-4.0))
- FICI ([3]; with tigecycline): 0.8
- Outcome ([3]; with tigecycline): indifferent (indifferent (0.5-4.0))
- MIC [4]: 64 µg/mL
- Combination (Antibiotic/Inhibitor) MICs: antibiotic ([4]; doxycycline with tegaserod): 8 µg/mL
- Combination (Antibiotic/Inhibitor) MICs: inhibitor [4, 9]: 16 µg/mL
- Combination (Antibiotic/Inhibitor) MICs: inhibitor ([4]; tegaserod with doxycycline): 32 µg/mL
- Combination (Antibiotic/Inhibitor) MICs: inhibitor ([4]; tegaserod with tetracycline): 32 µg/mL
- Combination (Antibiotic/Inhibitor) MICs: antibiotic ([4]; tetracycline with tegaserod): 16 µg/mL
- Combination (Antibiotic/Inhibitor) MICs: antibiotic [4, 10]: 4 µg/mL
- FICI ([4]; with doxycycline): 1.0
- Outcome ([4]; with doxycycline): indifferent (indifferent (0.5-4.0))
- FICI ([4]; with tetracycline): 1.0
- Outcome ([4]; with tetracycline): indifferent (indifferent (0.5-4.0))
- FICI ([4]; with tigecycline): 0.8
- Outcome ([4]; with tigecycline): indifferent (indifferent (0.5-4.0))
